Reference: patent US11384074B2, “Pesticidally active pyrrole derivatives” (Syngenta Participations AG, priority 2017, dated 2022)

Key:
Type in all cases: in vivo
[1] = system: Diabrotica Balteata (Corn Root Worm); assay: Diabrotica balteata (corn root worm) mortality on sprayed maize sprouts; conditions: 96 h, application rate of 200 ppm, L2 larvae, assessed 4 days after infestation, read-out: control (mortality)
Procedure: Diabrotica Balteata (Corn Root Worm):
Maize sprouts placed onto an agar layer in 24-well microtiter plates were treated with aqueous test solutions prepared from 10′000 ppm DMSO stock solutions by spraying. After drying, the plates were infested with L2 larvae (6 to 10 per well). The samples were assessed for mortality 4 days after infestation.

[2] = system: Euschistus heros (Neotropical Brown Stink Bug); assay: Euschistus heros feeding/contact activity on sprayed soybean leaves; conditions: 120 h, application rate of 200 ppm, N2 nymphs, assessed 5 days after infestation, read-out: control (mortality)
Procedure: Euschistus heros (Neotropical Brown Stink Bug): Feeding/Contact Activity
Soybean leaves on agar in 24-well microtiter plates were sprayed with aqueous test solutions prepared from 10′000 ppm DMSO stock solutions. After drying the leaves were infested with N2 nymphs. The samples were assessed for mortality 5 days after infestation.

[3] = system: Myzus persicae (Green Peach Aphid); assay: Myzus persicae feeding/contact activity on sprayed sunflower leaf discs; conditions: foliar, 144 h, application rate of 200 ppm, aphid population of mixed ages, assessed 6 days after infestation, read-out: control (mortality)
Procedure: Myzus persicae (Green Peach Aphid): Feeding/Contact Activity
Sunflower leaf discs were placed onto agar in a 24-well microtiter plate and sprayed with aqueous test solutions prepared from 10′000 ppm DMSO stock solutions. After drying, the leaf discs were infested with an aphid population of mixed ages. The samples were assessed for mortality 6 days after infestation.

[4] = system: Plutella xylostella (Diamond Back Moth); assay: Plutella xylostella feeding/contact activity on treated artificial diet; conditions: 120 h, application rate of 200 ppm, L2 larvae, assessed 5 days after infestation, read-out: control (mortality)
Procedure: Plutella xylostella (Diamond Back Moth): Feeding/Contact Activity
24-well microtiter plates with artificial diet were treated with aqueous test solutions prepared from 10′000 ppm DMSO stock solutions by pipetting. After drying, the plates were infested with L2 larvae (10 to 15 per well). The samples were assessed for mortality 5 days after infestation.

[5] = system: Spodoptera littoralis (Egyptian Cotton Leaf Worm); assay: Spodoptera littoralis feeding/contact activity on sprayed cotton leaf discs; conditions: foliar, 72 h, application rate of 200 ppm, L1 larvae, assessed 3 days after infestation, read-out: control (mortality)
Procedure: Spodoptera littoralis (Egyptian Cotton Leaf Worm): Feeding/Contact Activity
Cotton leaf discs were placed onto agar in 24-well microtiter plates and sprayed with aqueous test solutions prepared from 10′000 ppm DMSO stock solutions. After drying the leaf discs were infested with five L1 larvae. The samples were assessed for mortality 3 days after infestation.

[6] = system: Tetranychus urticae (Two-Spotted Spider Mite); assay: Tetranychus urticae feeding/contact activity on sprayed bean leaf discs; conditions: foliar, 192 h, application rate of 200 ppm, mite population of mixed ages, assessed 8 days after infestation, read-out: control (mortality on mixed population, mobile stages)
Procedure: Tetranychus urticae (Two-Spotted Spider Mite): Feeding/Contact Activity
Bean leaf discs on agar in 24-well microtiter plates were sprayed with aqueous test solutions prepared from 10′000 ppm DMSO stock solutions. After drying the leaf discs were infested with a mite population of mixed ages. The samples were assessed for mortality on mixed population (mobile stages) 8 days after infestation.

[7] = system: Thrips tabaci (Onion thrips); assay: Thrips tabaci feeding/contact activity on sprayed sunflower leaf discs; conditions: foliar, 144 h, application rate of 200 ppm, thrips population of mixed ages, assessed 6 days after infestation, read-out: control (mortality)
Procedure: Thrips tabaci (Onion thrips): Feeding/Contact Activity
Sunflower leaf discs were placed on agar in 24-well microtiter plates and sprayed with aqueous test solutions prepared from 10′000 ppm DMSO stock solutions. After drying the leaf discs were infested with a thrips population of mixed ages. The samples were assessed for mortality 6 days after infestation.

Measured: mortality at 200 ppm

Cn1cc(C(F)(F)C(F)(F)F)c(C(F)(F)F)c1-n1cc(-c2cc(C(=O)NC3CC3)c(C#N)s2)cn1 [Compound 1, 2-cyano-N-cyclopropyl-5-[1-[1-methyl-4-(1,1,2,2,2-pentafluoroethyl)-3-(trifluoromethyl)pyrrol-2-yl]pyrazol-4-yl]thiophene-3-carboxamide]
≥ 80%: all assays above

Cn1cc(C(F)(F)F)c(C(F)(F)C(F)(F)F)c1-n1cc(-c2cc(C(=O)NC3CC3)c(C#N)s2)cn1 [Compound 2, 2-cyano-N-cyclopropyl-5-[1-[1-methyl-3-(1,1,2,2,2-pentafluoroethyl)-4-(trifluoromethyl)pyrrol-2-yl]pyrazol-4-yl]thiophene-3-carboxamide]
not listed: [7]
≥ 80%: all other assays above

Cn1cc(C(F)(F)C(F)(F)F)c(C(F)(F)F)c1-c1cc(-c2cc(C(=O)NC3CC3)c(C#N)s2)on1 [Compound 3, 2-cyano-N-cyclopropyl-5-[3-[1-methyl-4-(1,1,2,2,2-pentafluoroethyl)-3-(trifluoromethyl)pyrrol-2-yl]isoxazol-5-yl]thiophene-3-carboxamide]
not listed: [3]
≥ 80%: all other assays above

Cn1cc(C(F)(F)F)c(C(F)(F)C(F)(F)F)c1-c1cc(-c2cc(C(=O)NC3CC3)c(C#N)s2)on1 [Compound 4, 2-cyano-N-cyclopropyl-5-[3-[1-methyl-3-(1,1,2,2,2-pentafluoroethyl)-4-(trifluoromethyl)pyrrol-2-yl]isoxazol-5-yl]thiophene-3-carboxamide]
not listed: [2] | [3]
≥ 80%: all other assays above

Cn1c(-n2cc(-c3ccc(Cl)c(C(=O)NC4(C#N)CC4)c3)cn2)cc(C(F)(C(F)(F)F)C(F)(F)F)c1Cl [Compound 5, 2-chloro-5-[1-[5-chloro-1-methyl-4-[1,2,2,2-tetrafluoro-1-(trifluoromethyl)ethyl]pyrrol-2-yl]pyrazol-4-yl]-N-(1-cyanocyclopropyl)benzamide]
≥ 80%: [1] | [4] | [5] | [6]

Cn1c(Cl)c(C(F)(C(F)(F)F)C(F)(F)F)c(Br)c1-n1cc(-c2ccc(Cl)c(C(=O)NC3(C#N)CC3)c2)cn1 [Compound 6, 5-[1-[3-bromo-5-chloro-1-methyl-4-[1,2,2,2-tetrafluoro-1-(trifluoromethyl)ethyl]pyrrol-2-yl]pyrazol-4-yl]-2-chloro-N-(1-cyanocyclopropyl)benzamide]
≥ 80%: [1] | [4] | [5] | [6]

Cn1c(Br)cc(C(F)(C(F)(F)F)C(F)(F)F)c1-c1cc(-c2ccc(Cl)c(C(=O)NC3(C#N)CC3)c2)on1 [Compound 7, 5-[3-[5-bromo-1-methyl-3-[1,2,2,2-tetrafluoro-1-(trifluoromethyl)ethyl]pyrrol-2-yl]isoxazol-5-yl]-2-chloro-N-(1-cyanocyclopropyl)benzamide]
≥ 80%: [1] | [3] | [4] | [5]
